Counter-ions that a name gives are not always drawn.
What was measured:
[1] = biological target: T1, JAK3 tyrosine kinase (Homo sapiens, UniProt P52333); test: Test 1: inhibitory activity to JAK3 tyrosine kinase (ELISA); type: biochemical; details: 25 μM ATP in substrate solution, 30° C. for 1 hour, n=2
T1 construct: purchased Carnabioscience Co
T1 sequence (P52333 1-1124): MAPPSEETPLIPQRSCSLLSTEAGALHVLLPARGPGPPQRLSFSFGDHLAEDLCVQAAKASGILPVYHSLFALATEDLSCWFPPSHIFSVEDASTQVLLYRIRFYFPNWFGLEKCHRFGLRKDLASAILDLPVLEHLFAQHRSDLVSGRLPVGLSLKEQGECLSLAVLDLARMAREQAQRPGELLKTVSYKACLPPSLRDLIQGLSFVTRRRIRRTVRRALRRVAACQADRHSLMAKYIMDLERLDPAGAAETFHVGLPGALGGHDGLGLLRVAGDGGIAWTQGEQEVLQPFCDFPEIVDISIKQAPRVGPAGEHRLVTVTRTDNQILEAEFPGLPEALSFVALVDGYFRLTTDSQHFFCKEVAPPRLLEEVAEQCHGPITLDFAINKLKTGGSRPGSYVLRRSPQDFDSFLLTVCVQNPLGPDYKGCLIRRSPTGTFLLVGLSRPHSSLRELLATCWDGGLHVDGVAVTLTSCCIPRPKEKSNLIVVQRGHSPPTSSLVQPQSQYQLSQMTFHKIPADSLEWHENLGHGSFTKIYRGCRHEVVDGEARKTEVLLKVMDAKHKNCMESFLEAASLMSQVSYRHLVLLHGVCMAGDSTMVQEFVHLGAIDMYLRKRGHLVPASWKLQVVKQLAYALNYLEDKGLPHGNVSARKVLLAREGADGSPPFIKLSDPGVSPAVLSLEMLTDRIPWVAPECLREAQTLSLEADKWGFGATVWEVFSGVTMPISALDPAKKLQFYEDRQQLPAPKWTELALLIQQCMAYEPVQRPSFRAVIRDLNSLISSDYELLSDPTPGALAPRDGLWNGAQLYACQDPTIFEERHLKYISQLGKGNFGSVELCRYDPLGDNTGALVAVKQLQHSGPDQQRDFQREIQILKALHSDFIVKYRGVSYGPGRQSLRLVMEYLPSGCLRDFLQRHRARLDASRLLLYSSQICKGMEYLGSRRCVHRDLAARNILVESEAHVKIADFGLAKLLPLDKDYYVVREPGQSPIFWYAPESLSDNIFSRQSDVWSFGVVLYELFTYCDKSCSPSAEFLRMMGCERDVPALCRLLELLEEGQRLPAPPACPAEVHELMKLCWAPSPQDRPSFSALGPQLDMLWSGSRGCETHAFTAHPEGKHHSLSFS
Method in brief: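 ELISA of JAK3 kinase activity with absorbance read at 450 nm. Compounds were tested from DMSO dilution series at 100-fold the measurement concentrations (1000–0.01 μM), diluted up to 20 times in assay buffer, against a DMSO negative control. IC50 was estimated by non-linear regression of absorbance.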

[2] = biological target: T2, JAK2 tyrosine kinase (Homo sapiens, UniProt O60674); test: Test 1: inhibitory activity to JAK2 tyrosine kinase (ELISA); type: biochemical; details: 25 μM ATP in substrate solution, 30° C. for 1 hour, n=2
T2 construct: purchased Carnabioscience Co
T2 sequence (O60674 whole entry): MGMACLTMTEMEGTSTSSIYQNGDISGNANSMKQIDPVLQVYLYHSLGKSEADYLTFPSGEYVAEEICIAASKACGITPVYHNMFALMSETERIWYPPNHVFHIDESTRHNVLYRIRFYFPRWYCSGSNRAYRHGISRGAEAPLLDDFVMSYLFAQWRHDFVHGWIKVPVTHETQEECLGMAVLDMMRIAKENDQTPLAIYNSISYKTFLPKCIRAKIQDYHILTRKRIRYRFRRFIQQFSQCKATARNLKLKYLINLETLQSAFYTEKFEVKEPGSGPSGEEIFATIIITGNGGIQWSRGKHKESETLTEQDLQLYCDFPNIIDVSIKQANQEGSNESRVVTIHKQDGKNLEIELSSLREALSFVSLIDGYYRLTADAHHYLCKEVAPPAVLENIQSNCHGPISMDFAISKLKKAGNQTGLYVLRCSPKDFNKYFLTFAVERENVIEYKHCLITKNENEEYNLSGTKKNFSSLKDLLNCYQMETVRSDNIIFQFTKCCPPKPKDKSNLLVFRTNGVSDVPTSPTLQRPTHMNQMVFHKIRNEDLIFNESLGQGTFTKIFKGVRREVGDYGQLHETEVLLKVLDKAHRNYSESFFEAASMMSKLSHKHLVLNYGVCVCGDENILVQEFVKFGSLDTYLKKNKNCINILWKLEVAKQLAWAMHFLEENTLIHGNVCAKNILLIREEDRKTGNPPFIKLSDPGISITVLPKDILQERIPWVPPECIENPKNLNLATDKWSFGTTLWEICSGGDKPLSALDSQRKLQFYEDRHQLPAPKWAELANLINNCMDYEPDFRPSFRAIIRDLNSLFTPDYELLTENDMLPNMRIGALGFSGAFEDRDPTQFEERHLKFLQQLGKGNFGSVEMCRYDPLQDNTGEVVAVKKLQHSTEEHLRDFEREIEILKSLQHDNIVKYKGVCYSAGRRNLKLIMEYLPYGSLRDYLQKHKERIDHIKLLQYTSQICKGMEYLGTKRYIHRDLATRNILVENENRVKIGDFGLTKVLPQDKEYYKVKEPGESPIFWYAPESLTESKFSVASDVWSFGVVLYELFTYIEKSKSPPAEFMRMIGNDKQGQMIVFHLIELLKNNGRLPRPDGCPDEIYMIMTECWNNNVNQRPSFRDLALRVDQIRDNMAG
Method in brief: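 This is an ELISA read at A450 (HRP anti-phosphotyrosine antibody, TMB) of biotin-peptide phosphorylation captured on streptavidin. Enzyme solution was 0.75 nM JAK2, and the substrate solution was 625 nM peptide with 25 μM ATP in Tris pH 7.5 buffer. The reaction ran 1 h at 30 °C with compounds in duplicate, and IC50 was fitted non-linearly.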

Compound | IC50 [1] | IC50 [2]
C[C@H](Nc1nc(Nc2cnccn2)cc(-c2cccc(S(C)(=O)=O)c2)n1)c1ccc(F)cc1 [Example 35, (S)—N^2-[1-(4-Fluorophenyl)ethyl]-6-[3-(methylsulfonyl)phenyl]-N^4-(pyrazin-2-yl) yrimidine-2,4-diamine hydrochloride] | 440 nM | 2.5 nM
C[C@H](Nc1nc(Nc2cnccn2)cc(-n2cc(C(=O)O)cn2)n1)c1ccc(F)cc1 [Example 90, (S)-1-{2-[1-(4-Fluorophenyl)ethylamino]-6-(pyrazin-2-ylamino)pyrimidin-4-yl}-1H-pyrazole-4-carboxylic acid] | 380 nM | 6.1 nM
CCNC(=O)C1CN(c2cc(Nc3cnccn3)nc(N[C@@H](C)c3ccc(F)cc3)n2)C1 [Example 180, (S)—N-Ethyl-1-{2-[1-(4-fluorophenyl)ethylamino]-6-(pyrazin-2-ylamino)pyrimidin-4-yl}azetidine-3-carboxamide] | 52 nM | 2.5 nM
C[C@H](Nc1cc(OCCCO)cc(Nc2cnccn2)n1)c1ccc(F)cc1 [Example 41, hydrochloride] | 51 nM | 1.1 nM
C[C@H](Nc1nc(Nc2cnccn2)ccc1C(=O)N1CCOCC1)c1ccc(F)cc1 [Example 188, (S)-{2-[1-(4-Fluorophenyl)ethylamino]-6-(pyrazin-2-ylamino)pyridin-3-yl}(morpholino)methanone dihydrochloride] | 120 nM | 3.7 nM
C[C@H](Nc1nc(Nc2cnccn2)cc(-c2ccc3c(c2)OCO3)n1)c1ccc(F)cc1 [Example 92, (S)-6-(Benzo[d]1,3-dioxol-5-yl)-N^2-[1-(4-fluorophenyl)ethyl]-N^4-(pyrazin-2-yl)pyrimidine-2,4-diamine hydrochloride] | 460 nM | 9.8 nM
C[C@H](Nc1nc(Nc2cnccn2)cc(OCC2CCCO2)n1)c1ccc(F)cc1 (stereo partly drawn) [Example 94, N^2-[(S)-1-(4-Fluorophenyl)ethyl]-N^4-(pyrazin-2-yl)-6-[(tetra hydrofuran-2-yl)methoxy]pyrimidine-2,4-diamine] | 77 nM | 1.7 nM
C[C@H](Nc1cc(N2CCSCC2)cc(Nc2cnccn2)n1)c1ccc(F)cc1 [Example 40, (S)—N^2-[1-(4-Fluorophenyl)ethyl]-N^6-(pyrazin-2-yl)-4-thiomorpholinopyridine-2,6-diamine] | 310 nM | 3.4 nM
C[C@H](Nc1nc(Nc2cnccn2)cc(N2CCC2)n1)c1ccc(F)cc1 [Example 43, (S)-6-(Azetidin-1-yl)-N^2-[1-(4-fluorophenyl)ethyl]-N^4-(pyrazin-2-yl)pyrimidine-2,4-diamine] | 130 nM | 1.2 nM
COc1ccc(-c2cc(Nc3cnccn3)nc(N[C@@H](C)c3ccc(F)cc3)c2)cn1 [Example 6, (S)—N^2′-[1-(4-Fluorophenyl)ethyl]-6-methoxy-N^6′-(pyrazin-2-yl)-3,4′-bipyridine-2′,6′-diamine] | 500 nM | 5.7 nM
C[C@H](Nc1nc(Nc2cnccn2)cc(N2CCC(C(=O)O)CC2)n1)c1ccc(F)cc1 [Example 85, (S)-1-{2-[1-(4-Fluorophenyl)ethylamino]-6-(pyrazin-2-ylamino)pyrimidin-4-yl}piperidine-4-carboxylic acid] | 20 nM | 0.51 nM
C[C@H](Nc1nc(Nc2cnccn2)cc(N2CC(CNC(=O)OC(C)(C)C)C2)n1)c1ccc(F)cc1 [Example 229, t-Butyl (S)-(1-{2-[1-(4-fluorophenyl)ethylamino]-6-(pyrazin-2-ylamino)pyrimidin-4-yl}azetidin-3-yl)methyl carbamate] | 180 nM | 3.9 nM
C[C@H](Nc1cc(-c2ccc(F)cc2)cc(Nc2cnccn2)n1)c1ccc(F)cc1 [Example 120, (S)-4-(4-Fluorophenyl)-N^2-[1-(4-fluorophenyl)ethyl]-N^6-(pyrazin-2-yl)pyridine-2,6-diamine hydrochloride] | 1700 nM | 23 nM

— patent US8586591B2, “Aminopyrazine derivative and medicine” (Nippon Shinyaku Co., Ltd., priority 2009, dated 2013)
